# Measured values from PMC11062894, “Protein-based bandpass filters for controlling cellular signaling with chemical inputs” (Nature Chemical Biology, 2023).
# Values joined by “and” are separate entries in the source; they are usually repeats but may differ in a detail not shown here. Equal values may be shown once.
# Tested on: GEMS receptors with CBPvene (Bcl2–LD3 and Bcl2high variants), STAT3-driven SEAP in HEK293T cells
# Assay: GEMS SEAP reporter assay, CBPvene (Bcl2high, LD3-v and Bcl2-v variants) with venetoclax
# Assay type: cell-based
# Conditions: for SEAP, replicate values: Supplementary Figure 8e
# [1] = SuppFigure 8b, LD3, venetoclax 10 nM
# [2] = SuppFigure 8b, LD3, venetoclax 31.6 nM
# [3] = SuppFigure 8b, LD3, venetoclax 100 nM
# [4] = SuppFigure 8b, LD3, venetoclax 316 nM
# [5] = SuppFigure 8b, LD3, venetoclax 1000 nM
# [6] = SuppFigure 8b, LD3, venetoclax 3160 nM
# [7] = SuppFigure 8b, LD3, venetoclax 10000 nM
# [8] = SuppFigure 8b, LD3v1, venetoclax 1 nM
# [9] = SuppFigure 8b, LD3v1, venetoclax 3.16 nM
# [10] = SuppFigure 8b, LD3v1, venetoclax 10 nM
# [11] = SuppFigure 8b, LD3v1, venetoclax 31.6 nM
# [12] = SuppFigure 8b, LD3v1, venetoclax 100 nM
# [13] = SuppFigure 8b, LD3v1, venetoclax 316 nM
# [14] = SuppFigure 8b, LD3v1, venetoclax 1000 nM
# [15] = SuppFigure 8b, LD3v1, venetoclax 3160 nM
# [16] = SuppFigure 8b, LD3v1, venetoclax 10000 nM
# [17] = SuppFigure 8b, LD3v2, venetoclax 1 nM
# [18] = SuppFigure 8b, LD3v2, venetoclax 3.16 nM
# [19] = SuppFigure 8b, LD3v2, venetoclax 10 nM
# [20] = SuppFigure 8b, LD3v2, venetoclax 31.6 nM
# [21] = SuppFigure 8b, LD3v2, venetoclax 100 nM
# [22] = SuppFigure 8b, LD3v2, venetoclax 316 nM
# [23] = SuppFigure 8b, LD3v2, venetoclax 1000 nM
# [24] = SuppFigure 8b, LD3v2, venetoclax 3160 nM
# [25] = SuppFigure 8b, LD3v2, venetoclax 10000 nM
# [26] = SuppFigure 8b, LD3v3, venetoclax 1 nM
# [27] = SuppFigure 8b, LD3v3, venetoclax 3.16 nM
# [28] = SuppFigure 8b, LD3v3, venetoclax 10 nM
# [29] = SuppFigure 8b, LD3v3, venetoclax 31.6 nM
# [30] = SuppFigure 8b, LD3v3, venetoclax 100 nM
# [31] = SuppFigure 8b, LD3v3, venetoclax 316 nM
# [32] = SuppFigure 8b, LD3v3, venetoclax 1000 nM
# [33] = SuppFigure 8b, LD3v3, venetoclax 3160 nM
# [34] = SuppFigure 8b, LD3v3, venetoclax 10000 nM
# [35] = SuppFigure 8c, LD3, venetoclax 1 nM
# [36] = SuppFigure 8c, LD3, venetoclax 3.16 nM
# [37] = SuppFigure 8c, LD3, venetoclax 10 nM
# [38] = SuppFigure 8c, LD3, venetoclax 31.6 nM
# [39] = SuppFigure 8c, LD3, venetoclax 100 nM
# [40] = SuppFigure 8c, LD3, venetoclax 316 nM
# [41] = SuppFigure 8c, LD3, venetoclax 1000 nM
# [42] = SuppFigure 8c, LD3, venetoclax 3160 nM
# [43] = SuppFigure 8c, LD3, venetoclax 10000 nM
# [44] = SuppFigure 8c, LD3v1, venetoclax 1 nM
# [45] = SuppFigure 8c, LD3v1, venetoclax 3.16 nM
# [46] = SuppFigure 8c, LD3v1, venetoclax 10 nM
# [47] = SuppFigure 8c, LD3v1, venetoclax 31.6 nM
# [48] = SuppFigure 8c, LD3v1, venetoclax 100 nM
# [49] = SuppFigure 8c, LD3v1, venetoclax 316 nM
# [50] = SuppFigure 8c, LD3v1, venetoclax 1000 nM
# [51] = SuppFigure 8c, LD3v1, venetoclax 3160 nM
# [52] = SuppFigure 8c, LD3v1, venetoclax 10000 nM
# [53] = SuppFigure 8c, LD3v2, venetoclax 1 nM
# [54] = SuppFigure 8c, LD3v2, venetoclax 3.16 nM
# [55] = SuppFigure 8c, LD3v2, venetoclax 10 nM
# [56] = SuppFigure 8c, LD3v2, venetoclax 31.6 nM
# [57] = SuppFigure 8c, LD3v2, venetoclax 100 nM
# [58] = SuppFigure 8c, LD3v2, venetoclax 316 nM
# [59] = SuppFigure 8c, LD3v2, venetoclax 1000 nM
# [60] = SuppFigure 8c, LD3v2, venetoclax 3160 nM
# [61] = SuppFigure 8c, LD3v2, venetoclax 10000 nM
# [62] = SuppFigure 8c, LD3v3, venetoclax 1 nM
# [63] = SuppFigure 8c, LD3v3, venetoclax 3.16 nM
# [64] = SuppFigure 8c, LD3v3, venetoclax 10 nM
# [65] = SuppFigure 8c, LD3v3, venetoclax 31.6 nM
# [66] = SuppFigure 8c, LD3v3, venetoclax 100 nM
# [67] = SuppFigure 8c, LD3v3, venetoclax 316 nM
# [68] = SuppFigure 8c, LD3v3, venetoclax 1000 nM
# [69] = SuppFigure 8c, LD3v3, venetoclax 3160 nM
# [70] = SuppFigure 8c, LD3v3, venetoclax 10000 nM
smiles,measurement,setting,value
CC1(C)CCC(CN2CCN(c3ccc(C(=O)NS(=O)(=O)c4ccc(NCC5CCOCC5)c([N+](=O)[O-])c4)c(Oc4cnc5[nH]ccc5c4)c3)CC2)=C(c2ccc(Cl)cc2)C1 [Venetoclax],Normalized data (SEAP),[1],4.498
same,Raw data (SEAP),[1],18.9052
same,Normalized data (SEAP),[2],14.8552
same,Raw data (SEAP),[2],62.4429
same,Normalized data (SEAP),[3],43.1759
same,Raw data (SEAP),[3],181.487
same,Normalized data (SEAP),[4],91.7223
same,Raw data (SEAP),[4],385.549
same,Normalized data (SEAP),[5],100
same,Raw data (SEAP),[5],420.344
same,Normalized data (SEAP),[6],92.3499
same,Raw data (SEAP),[6],388.188
same,Normalized data (SEAP),[7],51.2329
same,Raw data (SEAP),[7],215.355
same,Normalized data (SEAP),[8],9.345
same,Raw data (SEAP),[8],17.9682
same,Normalized data (SEAP),[9],9.034
same,Raw data (SEAP),[9],17.3705
same,Normalized data (SEAP),[10],10.4886
same,Raw data (SEAP),[10],20.1681
same,Normalized data (SEAP),[11],19.5956
same,Raw data (SEAP),[11],37.6794
same,Normalized data (SEAP),[12],44.2027
same,Raw data (SEAP),[12],84.9952
same,Normalized data (SEAP),[13],100
same,Raw data (SEAP),[13],192.285
same,Normalized data (SEAP),[14],87.7314
same,Raw data (SEAP),[14],168.695
same,Normalized data (SEAP),[15],49.2054
same,Raw data (SEAP),[15],94.6147
same,Normalized data (SEAP),[16],19.8616
same,Raw data (SEAP),[16],38.191
same,Normalized data (SEAP),[17],3.604
same,Raw data (SEAP),[17],12.0656
same,Normalized data (SEAP),[18],3.9805
same,Raw data (SEAP),[18],13.3245
same,Normalized data (SEAP),[19],4.834
same,Raw data (SEAP),[19],16.18
same,Normalized data (SEAP),[20],12.8068
same,Raw data (SEAP),[20],42.87
same,Normalized data (SEAP),[21],33.7173
same,Raw data (SEAP),[21],112.867
same,Normalized data (SEAP),[22],77.9659
same,Raw data (SEAP),[22],260.986
same,Normalized data (SEAP),[23],100
same,Raw data (SEAP),[23],334.744
same,Normalized data (SEAP),[24],66.077
same,Raw data (SEAP),[24],221.189
same,Normalized data (SEAP),[25],30.9558
same,Raw data (SEAP),[25],103.623
same,Normalized data (SEAP),[26],59.1038
same,Raw data (SEAP),[26],11.2669
same,Normalized data (SEAP),[27],71.809
same,Raw data (SEAP),[27],13.6889
same,Normalized data (SEAP),[28],61.7452
same,Raw data (SEAP),[28],11.7704
same,Normalized data (SEAP),[29],69.7498
same,Raw data (SEAP),[29],13.2963
same,Normalized data (SEAP),[30],80.5519
same,Raw data (SEAP),[30],15.3555
same,Normalized data (SEAP),[31],100
same,Raw data (SEAP),[31],19.0629
same,Normalized data (SEAP),[32],89.5017
same,Raw data (SEAP),[32],17.0616
same,Normalized data (SEAP),[33],75.6488
same,Raw data (SEAP),[33],14.4208
same,Normalized data (SEAP),[34],59.7156
same,Raw data (SEAP),[34],11.3835
same,Normalized data (SEAP),[35],3.575
same,Raw data (SEAP),[35],13.7218
same,Normalized data (SEAP),[36],3.97
same,Raw data (SEAP),[36],15.2365
same,Normalized data (SEAP),[37],6.118
same,Raw data (SEAP),[37],23.4789
same,Normalized data (SEAP),[38],19.9083
same,Raw data (SEAP),[38],76.4036
same,Normalized data (SEAP),[39],50.1718
same,Raw data (SEAP),[39],192.548
same,Normalized data (SEAP),[40],93.753
same,Raw data (SEAP),[40],359.804
same,Normalized data (SEAP),[41],100
same,Raw data (SEAP),[41],383.778
same,Normalized data (SEAP),[42],77.866
same,Raw data (SEAP),[42],298.833
same,Normalized data (SEAP),[43],35.1914
same,Raw data (SEAP),[43],135.057
same,Normalized data (SEAP),[44],13.8401
same,Raw data (SEAP),[44],15.4633
same,Normalized data (SEAP),[45],14.8573
same,Raw data (SEAP),[45],16.5999
same,Normalized data (SEAP),[46],15.6025
same,Raw data (SEAP),[46],17.4324
same,Normalized data (SEAP),[47],28.6773
same,Raw data (SEAP),[47],32.0407
same,Normalized data (SEAP),[48],48.5828
same,Raw data (SEAP),[48],54.2809
same,Normalized data (SEAP),[49],100
same,Raw data (SEAP),[49],111.729
same,Normalized data (SEAP),[50],98.9424
same,Raw data (SEAP),[50],110.547
same,Normalized data (SEAP),[51],75.2543
same,Raw data (SEAP),[51],84.0806
same,Normalized data (SEAP),[52],21.4009
same,Raw data (SEAP),[52],23.9109
same,Normalized data (SEAP),[53],4.916
same,Raw data (SEAP),[53],14.375
same,Normalized data (SEAP),[54],5.386
same,Raw data (SEAP),[54],15.7505
same,Normalized data (SEAP),[55],6.285
same,Raw data (SEAP),[55],18.3792
same,Normalized data (SEAP),[56],18.3149
same,Raw data (SEAP),[56],53.5545
same,Normalized data (SEAP),[57],44.7805
same,Raw data (SEAP),[57],130.943
same,Normalized data (SEAP),[58],92.9232
same,Raw data (SEAP),[58],271.716
same,Normalized data (SEAP),[59],100
same,Raw data (SEAP),[59],292.41
same,Normalized data (SEAP),[60],75.7485
same,Raw data (SEAP),[60],221.496
same,Normalized data (SEAP),[61],31.6477
same,Raw data (SEAP),[61],92.541
same,Normalized data (SEAP),[62],39.2835
same,Raw data (SEAP),[62],15.066
same,Normalized data (SEAP),[63],40.4811
same,Raw data (SEAP),[63],15.5253
same,Normalized data (SEAP),[64],41.5277
same,Raw data (SEAP),[64],15.9266
same,Normalized data (SEAP),[65],52.0376
same,Raw data (SEAP),[65],19.9574
same,Normalized data (SEAP),[66],75.9664
same,Raw data (SEAP),[66],29.1345
same,Normalized data (SEAP),[67],100
same,Raw data (SEAP),[67],38.3518
same,Normalized data (SEAP),[68],67.7678
same,Raw data (SEAP),[68],25.9902
same,Normalized data (SEAP),[69],51.723
same,Raw data (SEAP),[69],19.8367
same,Normalized data (SEAP),[70],31.0619
same,Raw data (SEAP),[70],11.9128
same,"SEAP, replicate values","CBPVene-v5-LD3v1, venetoclax 100 nM",98.3781 and 87.1331 and 45.1145
same,"SEAP, replicate values","CBPVene-v5-LD3v1, venetoclax 3160 nM",13.0779
same,"SEAP, replicate values","CBPVene-v5, venetoclax 100 nM",341.722 and 335.341
same,"Raw data Figure 5c, CBPVene-v4-LD3v1 (SEAP reporter raw value, single replicate)","Venetoclax 10000 nM, construct CBPVene-v4-LD3v1, three replicate columns",307.085 and 269.935 and 317.486
same,"Raw data Figure 5c, CBPVene-v4 (SEAP reporter raw value, single replicate)","Venetoclax 10000 nM, construct CBPVene-v4, three replicate columns",10.3692 and 8.227 and 12.3711
